Results reported in PMC5931096, “A Phase I study of the novel immunomodulatory agent PG545 (pixatimod) in subjects with advanced solid tumours” (British Journal of Cancer, 2018).

Experiment: Phase I dose-escalation: safety, tolerability, DLT and MTD of weekly 1-h IV infusion
Type: in vivo
Conditions: Safety Set
Procedure: The study was an open-label, multicentre, phase 1 dose-escalation study using a 3 + 3 design. The primary objective was to determine the MTD of weekly administered PG545 via IV infusion. Secondary objectives were to characterize safety, tolerability, clinical activity, PK and PD biomarkers.
Patients continued treatment until disease progression, unacceptable toxicity or withdrawal (either voluntarily or investigator-decision).
All patients were assessed for safety, those who received at least one dose of PG545 were evaluated for efficacy. Safety assessment included the incidence of all adverse events (AEs), irrespective of relationship to study drug, according to the National Cancer Institute Common Terminology Criteria for Adverse Events, version 4.0, and the incidence of patients experiencing dose modifications and/or premature discontinuation of study drug. Dose-limiting toxicities (DLTs) used to determine the MTD were defined as occurring during Cycle 1 of treatment only and related to PG545 according to investigator assessment. If no DLT occurred in the first three subjects, the next three-subject cohort was enrolled at the next highest available dose level. If a single DLT occurred, an additional three subjects was enrolled at the same dose level. Dose escalation continued until two subjects of the cohort experienced a DLT; this was defined as the toxic dose level. The dose-escalation phase was completed and MTD determined by reducing the dose to the next lowest dose compared to the toxic dose and expanding this cohort to at least 6 subjects.

CC(C)CCC[C@@H](C)[C@H]1CC[C@H]2[C@@H]3CC[C@H]4C[C@@H](O[C@@H]5O[C@H](COS(=O)(=O)O)[C@@H](O[C@H]6O[C@H](COS(=O)(=O)O)[C@@H](O[C@H]7O[C@H](COS(=O)(=O)O)[C@@H](O[C@H]8O[C@H](COS(=O)(=O)O)[C@@H](OS(=O)(=O)O)[C@H](OS(=O)(=O)O)[C@H]8OS(=O)(=O)O)[C@H](OS(=O)(=O)O)[C@H]7OS(=O)(=O)O)[C@H](OS(=O)(=O)O)[C@H]6OS(=O)(=O)O)[C@H](OS(=O)(=O)O)[C@H]5OS(=O)(=O)O)CC[C@]4(C)[C@H]3CC[C@]12C [PG545]
TEAE: Blood creatinine increased (Mild, Unrelated): 1 (4.3%) | TEAE: Chest discomfort (Mild, Unrelated): 1 (4.3%) | TEAE: Chest pain (Mild, Unrelated): 2 (8.7%) | TEAE: Constipation (Mild, Unrelated): 5 (21.7%) | TEAE: Cough (Mild, Unrelated): 2 (8.7%) | TEAE: Decreased appetite (Mild, Unrelated): 1 (4.3%) | TEAE: Deep vein thrombosis (Mild, Unrelated): 1 (4.3%) | TEAE: Depression (Mild, Unrelated): 3 (13.0%) | TEAE: Diarrhoea (Mild, Unrelated): 3 (13.0%) | TEAE: Dry mouth (Mild, Unrelated): 1 (4.3%) | TEAE: Dry skin (Mild, Unrelated): 1 (4.3%) | TEAE: Dyspepsia (Mild, Unrelated): 1 (4.3%) | TEAE: Dyspnoea (Mild, Unrelated): 5 (21.7%) | TEAE: Fatigue (Mild, Unrelated): 2 (8.7%) | TEAE: Fungal infection (Mild, Unrelated): 1 (4.3%) | TEAE: Gastroesophageal reflux disease (Mild, Unrelated): 1 (4.3%) | TEAE: Gastrointestinal disorders (Mild, Unrelated): 13 (56.5%) | TEAE: General disorders and administration site conditions (Mild, Unrelated): 7 (30.4%) | TEAE: Haematochezia (Mild, Unrelated): 1 (4.3%) | TEAE: Headache (Mild, Unrelated): 1 (4.3%) | TEAE: Hypercalcaemia (Mild, Unrelated): 1 (4.3%) | TEAE: Hypertension (second line of this name) (Mild, Unrelated): 1 (4.3%) | TEAE: Hypokalaemia (Mild, Unrelated): 1 (4.3%) | TEAE: Infections and infestations (Mild, Unrelated): 4 (17.4%) | TEAE: Influenza like illness (Mild, Unrelated): 1 (4.3%) | TEAE: Insomnia (Mild, Unrelated): 3 (13.0%) | TEAE: Investigations (Mild, Unrelated): 3 (13.0%) | TEAE: Lethargy (Mild, Unrelated): 2 (8.7%) | TEAE: Malaise (Mild, Unrelated): 1 (4.3%) | TEAE: Metabolism and nutritional disorders (Mild, Unrelated): 2 (8.7%) | TEAE: Mucosal inflammation (Mild, Unrelated): 2 (8.7%) | TEAE: Musculoskeletal and connective tissue disorders (Mild, Unrelated): 5 (21.7%) | TEAE: Musculoskeletal chest pain (Mild, Unrelated): 1 (4.3%) | TEAE: Nausea (Mild, Unrelated): 3 (13.0%) | TEAE: Nervous system disorders (Mild, Unrelated): 5 (21.7%) | TEAE: Neutrophil count increased (Mild, Unrelated): 1 (4.3%) | TEAE: Onycholysis (Mild, Unrelated): 1 (4.3%) | TEAE: Oropharyngeal pain (Mild, Unrelated): 1 (4.3%) | TEAE: Pain (Mild, Unrelated): 1 (4.3%) | TEAE: Pain in extremity (Mild, Unrelated): 2 (8.7%) | TEAE: Pruritus (Mild, Unrelated): 1 (4.3%) | TEAE: Psychiatric disorders (Mild, Unrelated): 5 (21.7%) | TEAE: Respiratory, thoracic and mediastinal disorders (Mild, Unrelated): 6 (26.1%) | TEAE: Skin and subcutaneous tissue disorders (Mild, Unrelated): 3 (13.0%) | TEAE: Upper respiratory tract infection (Mild, Unrelated): 2 (8.7%) | TEAE: Vascular disorders (Mild, Unrelated): 2 (8.7%) | TEAE: Vomiting (Mild, Unrelated): 5 (21.7%) | TEAE: Vulvovaginal candidiasis (Mild, Unrelated): 1 (4.3%) | TEAE: White blood cell count increased (Mild, Unrelated): 1 (4.3%) | TEAE: aPTT prolonged (Mild, Unrelated): 1 (4.3%) | TEAE: At least one event (Moderate, Related): 13 (56.5%) | TEAE: Chills (Moderate, Related): 2 (8.7%) | TEAE: Constipation (Moderate, Related): 1 (4.3%) | TEAE: Decreased appetite (Moderate, Related): 2 (8.7%) | TEAE: Dehydration (Moderate, Related): 1 (4.3%) | TEAE: Diarrhoea (Moderate, Related): 1 (4.3%) | TEAE: Dyspnoea (Moderate, Related): 1 (4.3%) | TEAE: Fall (Moderate, Related): 1 (4.3%) | TEAE: Fatigue (Moderate, Related): 2 (8.7%) | TEAE: GGT increased (Moderate, Related): 1 (4.3%) | TEAE: Gastrointestinal disorders (Moderate, Related): 4 (17.4%) | TEAE: General disorders and administration site conditions (Moderate, Related): 4 (17.5%) | TEAE: Hypercholesterolaemia (Moderate, Related): 2 (8.7%) | TEAE: Hyperlipidaemia (Moderate, Related): 1 (4.3%) | TEAE: Hypertension (Moderate, Related): 2 (8.7%) | TEAE: Infusion related reaction (Moderate, Related): 4 (17.4%) | TEAE: Injury, poisoning and procedural complications (Moderate, Related): 5 (21.7%) | TEAE: Investigations (Moderate, Related): 1 (4.3%) | TEAE: Lethargy (Moderate, Related): 1 (4.3%) | TEAE: Metabolism and nutritional disorders (Moderate, Related): 4 (17.4%) | TEAE: Nausea (Moderate, Related): 1 (4.3%) | TEAE: Nervous system disorders (Moderate, Related): 1 (4.3%) | TEAE: Pyrexia (Moderate, Related): 1 (4.3%) | TEAE: Respiratory, thoracic and mediastinal disorders (Moderate, Related): 1 (4.3%) | TEAE: Vascular disorders (Moderate, Related): 2 (8.7%) | TEAE: Vomiting (Moderate, Related): 1 (4.3%) | TEAE: AST increased (Moderate, Unrelated): 1 (4.3%) | TEAE: Abdominal distension (Moderate, Unrelated): 1 (4.3%) | TEAE: Abdominal pain (Moderate, Unrelated): 3 (13.0%) | TEAE: Abdominal pain lower (Moderate, Unrelated): 1 (4.3%) | TEAE: Abdominal pain upper (Moderate, Unrelated): 2 (8.7%) | TEAE: Anaemia (Moderate, Unrelated): 2 (8.7%) | TEAE: Arthralgia (Moderate, Unrelated): 1 (4.3%) | TEAE: At least one event (Moderate, Unrelated): 14 (60.9%) | TEAE: Back pain (Moderate, Unrelated): 3 (13.0%) | TEAE: Blood ALP increased (Moderate, Unrelated): 1 (4.3%) | TEAE: Blood and lymphatic system disorders (Moderate, Unrelated): 2 (8.7%) | TEAE: Blood bilirubin increased (Moderate, Unrelated): 1 (4.3%) | TEAE: Constipation (Moderate, Unrelated): 1 (4.3%) | TEAE: Cough (Moderate, Unrelated): 1 (4.3%) | TEAE: Decreased appetite (Moderate, Unrelated): 3 (13.0%) | TEAE: Depression (Moderate, Unrelated): 1 (4.3%) | TEAE: Diplopia (Moderate, Unrelated): 1 (4.3%) | TEAE: Dry mouth (Moderate, Unrelated): 1 (4.3%) | TEAE: Dyspnoea (Moderate, Unrelated): 3 (13.0%) | TEAE: Eye disorders (Moderate, Unrelated): 1 (4.3%) | TEAE: Fatigue (Moderate, Unrelated): 3 (13.0%) | TEAE: GGT increased (Moderate, Unrelated): 1 (4.3%) | TEAE: Gait disturbance (Moderate, Unrelated): 1 (4.3%) | TEAE: Gastrointestinal disorders (Moderate, Unrelated): 6 (26.1%)
